Like-named read-outs stand apart in the source and are kept apart here.
How the values were obtained:
[1] = target: CRTH2 (Homo sapiens (Human), UniProt Q9Y5Y4); experiment: CRTH2 receptor binding inhibitory activity ([3H]-PGD2 displacement, membranes of CRTH2-expressing K562 cell)
Procedure: Cell membrane was prepared from CRTH2-expressing K562 cell. The cell membrane (20 μg/well) was mixed with reaction buffer (50 mM Tris/HCl, pH 7.4, 10 mM MgCl2). Then, [^3H]-PGD2 was added to the mixture and incubated for 60 min at room temperature. […] Then, the mixture was filtrated with glass paper immediately. The filter paper was washed several times and radio activity on the filter was measured. Specific binding was defined as difference between total and non-specific binding (radio activity with 10 μM PGD2). Ki values for each compound were calculated from displacement curve.

[2] = target: Human DP1 receptor (Homo sapiens (Human), UniProt Q13258); experiment: Human DP1 inhibitory activity in DP1-expressing cell (PGD2-induced cAMP); assay type: cell-based; settings: category of cAMP IC50, human DP1 receptor expressing Jurkut cell
Chain of Human DP1 receptor (Q13258 whole entry): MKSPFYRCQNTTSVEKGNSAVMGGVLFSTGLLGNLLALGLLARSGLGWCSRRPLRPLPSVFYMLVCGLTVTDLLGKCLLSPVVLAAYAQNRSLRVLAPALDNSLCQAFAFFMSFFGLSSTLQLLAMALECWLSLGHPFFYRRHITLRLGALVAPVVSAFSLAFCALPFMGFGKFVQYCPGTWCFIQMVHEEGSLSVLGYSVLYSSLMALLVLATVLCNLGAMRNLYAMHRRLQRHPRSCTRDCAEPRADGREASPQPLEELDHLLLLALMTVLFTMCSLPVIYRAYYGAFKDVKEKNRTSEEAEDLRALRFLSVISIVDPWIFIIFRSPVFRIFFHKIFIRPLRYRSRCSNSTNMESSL
Procedure: Compounds were categorized as AA (cAMP is less than 100 nM) and A (cAMP is more than 100 nM and less than 5000 nM) as shown in Table 99 and 100.

[3] = CRTH2 receptor binding, [3H]-PGD2 displacement, membrane of CRTH2-expressing K562 cell, categorized AAAA/AAA, read-out: Ki
[4] = [3H]-PGD2 displacement, membrane of CRTH2-expressing K562 cell, read-out: Ki

Chain of CRTH2 (Q9Y5Y4 whole entry): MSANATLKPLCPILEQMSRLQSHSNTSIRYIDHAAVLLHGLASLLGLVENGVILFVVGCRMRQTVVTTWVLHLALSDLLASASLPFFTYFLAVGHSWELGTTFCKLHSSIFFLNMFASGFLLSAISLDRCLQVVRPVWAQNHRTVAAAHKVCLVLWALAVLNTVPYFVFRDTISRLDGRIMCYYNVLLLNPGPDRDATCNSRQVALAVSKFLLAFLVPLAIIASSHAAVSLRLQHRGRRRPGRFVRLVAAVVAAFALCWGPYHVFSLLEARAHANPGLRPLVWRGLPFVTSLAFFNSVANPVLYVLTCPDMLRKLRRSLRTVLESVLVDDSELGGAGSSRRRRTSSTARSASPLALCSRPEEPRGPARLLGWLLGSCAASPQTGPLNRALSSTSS

Row | SMILES | Ki [1, 3] [µM] | IC50 [2] [µM] | Ki [1, 4] [µM] | Ki [1] [µM]
1 | CC(C)Oc1ccc(S(=O)(=O)N2C[C@@H](C)[C@@H](n3nc(CC(=O)O)c4c(F)cccc43)C2)cc1 [Compound I-263] | < 0.1 | < 0.1 | – | –
2 | CCOc1ccc(S(=O)(=O)N2C[C@H](F)[C@@H](n3nc(CC(=O)O)c4ccccc43)C2)cc1 [Compound I-313] | < 0.1 | 0.1 to 5 | – | –
3 | Cc1ccc2c(CC(=O)O)nn([C@H]3CN(S(=O)(=O)c4ccc(OC(C)C)cc4)C[C@@H]3C)c2c1 [Compound I-114] | < 0.1 | < 0.1 | – | –
4 | CCOc1ccc(S(=O)(=O)N2C[C@@H](C)[C@@H](n3nc(CC(=O)O)c4ccccc43)C2)cc1[N+](=O)[O-] [Compound I-188] | 0.1 to 5 | 0.1 to 5 | – | –
5 | CC(C)Oc1ccc(S(=O)(=O)N2C[C@@H](C3CC3)[C@@H](n3nc(CC(=O)O)c4ccc(F)cc43)C2)cc1 [Compound I-41] | < 0.1 | 0.1 to 5 | – | –
6 | CC(C)Oc1ccc(S(=O)(=O)N2C[C@H](n3nc(CC(=O)O)c4ccc(F)cc43)C[C@@H]2CCc2ccccc2)cc1 [Compound I-343] | < 0.1 | < 0.1 | – | –
7 | Cc1c(CC(=O)O)c2ccccc2n1[C@@H]1C[C@H](C)N(S(=O)(=O)c2ccc(F)cc2)C1 [Compound I-317] | 0.1 to 5 | 0.1 to 5 | – | –
8 | CC(C)Oc1ccc(S(=O)(=O)N2C[C@@H](C)[C@H](n3nc(CC(=O)O)c4ccccc43)C2)cc1 [Compound I-199] | 0.1 to 5 | 0.1 to 5 | – | –
9 | CCOc1ncc(S(=O)(=O)N2C[C@@H](C)[C@@H](n3nc(CC(=O)O)c4ccccc43)C2)s1 [Compound I-168] | < 0.1 | < 0.1 | – | –
10 | CC(C)Oc1ccc(S(=O)(=O)N2C[C@H](n3nc(CC(=O)O)c4ccc(F)cc43)C[C@H]2c2ccccn2)cc1 [Compound I-357] | 0.1 to 5 | 0.1 to 5 | – | –
11 | CC(C)Oc1ccc(S(=O)(=O)N2C[C@H](n3nc(CC(=O)O)c4ccc(F)cc43)C[C@H]2c2ccncc2)cc1 [Compound I-362] | 0.1 to 5 | 0.1 to 5 | – | –
12 | CCOc1ccc(S(=O)(=O)N2C[C@@H](C)[C@@H](n3nc(CC(=O)O)c4ccc(C#N)cc43)C2)cn1 [Compound I-173] | < 0.1 | 0.1 to 5 | 0.011 | –
13 | CC(C)Oc1ccc(S(=O)(=O)N2[C@@H]3CC[C@H]2C[C@@H](n2nc(CC(=O)O)c4ccc(F)cc42)C3)cc1 [Compound I-83] | – | < 0.1 | – | 0.1 to 5
14 | CC(C)Oc1ccc(S(=O)(=O)N2C[C@@H](C)[C@@H](n3nc(CC(=O)O)c4ccccc43)C2)cc1 [Compound I-35] | < 0.1 | < 0.1 | – | –
15 | CC(C)Oc1ccc(S(=O)(=O)N2C[C@@H](C)[C@@H](n3nc(Cc4nnn[nH]4)c4ccc(F)cc43)C2)cc1 [Compound I-157] | 0.1 to 5 | 0.1 to 5 | 0.27 | –
16 | CC(C)Oc1ccc(S(=O)(=O)N2C[C@H](n3nc(CC(=O)O)c4ccc(F)cc43)C[C@@H]2COc2cccc(O)c2)cc1 [Compound I-346] | < 0.1 | < 0.1 | – | –
17 | CC(C)Oc1ccc(S(=O)(=O)N2C[C@H](n3nc(CC(=O)O)c4ccc(F)cc43)C[C@H]2CC#N)cc1 [Compound I-14] | < 0.1 | 0.1 to 5 | – | –
18 | C[C@@H]1CN(S(=O)(=O)c2ccccc2Cl)C[C@@H]1n1nc(CC(=O)O)c2ccc(F)cc21 [Compound I-121] | < 0.1 | 0.1 to 5 | – | –
19 | CCOc1ccc(S(=O)(=O)N2C[C@@H](C)[C@@H](n3nc(C(F)(F)C(=O)O)c4ccccc43)C2)cc1 [Compound I-290] | 0.1 to 5 | < 0.1 | – | –
20 | CC#CCOC[C@H]1C[C@@H](n2nc(CC(=O)O)c3ccc(F)cc32)CN1S(=O)(=O)c1ccc(OC(C)C)cc1 [Compound I-326] | 0.1 to 5 | 0.1 to 5 | – | –
21 | CC(C)Oc1ccc(S(=O)(=O)N2C[C@H](n3nc(CC(=O)O)c4ccccc43)C[C@@H]2C)cc1 [Compound I-91] | < 0.1 | < 0.1 | – | –
22 | CCOc1ccc(S(=O)(=O)N2C[C@H](n3nc(CC(=O)O)c4ccccc43)[C@@](C)(F)C2)cc1 (racemic) [Compound I-228] | < 0.1 | < 0.1 | – | –
23 | CCOc1ccc(S(=O)(=O)N2C[C@@H](C)[C@@H](n3nc(CC(=O)O)c4ccc(C)cc43)C2)s1 [Compound I-171] | < 0.1 | < 0.1 | – | –
24 | CC(C)Oc1ccc(S(=O)(=O)N2C[C@@H](C)[C@@H](n3nc(CC(=O)O)c4cccc(F)c43)C2)cc1 [Compound I-59] | < 0.1 | 0.1 to 5 | 0.023 | –
25 | CC(C)Oc1ccc(S(=O)(=O)N2C[C@@H](C)[C@@H](n3nc(CC(=O)O)c4cccc(Cl)c43)C2)cc1 [Compound I-61] | < 0.1 | 0.1 to 5 | – | –
26 | CC(C)Oc1ccc(S(=O)(=O)N2C[C@H](n3nc(CC(=O)O)c4ccc(F)cc43)C[C@@]2(C)C#N)cc1 [Compound I-105] | < 0.1 | < 0.1 | – | –

Row | SMILES | Ki [1, 3] [µM] | IC50 [2] [µM] | Ki [1, 4] [µM] | Ki [1] [µM]
27 | CCOc1ccc(S(=O)(=O)N2C[C@@H](C)[C@@H](n3nc(CC(=O)O)c4ccc(C(F)(F)F)cc43)C2)cn1 [Compound I-132] | < 0.1 | < 0.1 | – | –
28 | Cc1ccc2c(CC(=O)O)nn([C@@H]3C[C@H](C(F)F)N(S(=O)(=O)c4ccc(OC(C)C)cc4)C3)c2c1 [Compound I-92] | 0.1 to 5 | < 0.1 | – | –
29 | CC(C)Oc1ccc(S(=O)(=O)N2C[C@@H](n3nc(CC(=O)O)c4ccc(F)cc43)[C@@H](C)C2)cc1 [Compound I-36] | < 0.1 | 0.1 to 5 | – | –
30 | CC(C)Oc1ccc(S(=O)(=O)N2C[C@H](n3nc(CC(=O)O)c4ccc(F)cc43)C[C@@H]2CS(C)(=O)=O)cc1 [Compound I-355] | 0.1 to 5 | 0.1 to 5 | – | –
31 | COc1ccc(S(=O)(=O)N2C[C@@H](C)[C@@H](n3nc(CC(=O)O)c4cc(Cl)ccc43)C2)cc1 [Compound I-218] | 0.1 to 5 | < 0.1 | – | –
32 | CCOc1ncc(S(=O)(=O)N2C[C@@H](C)[C@@H](n3nc(CC(=O)O)c4ccc(C)cc43)C2)s1 [Compound I-170] | < 0.1 | < 0.1 | – | –
33 | CC(C)Oc1ccc(S(=O)(=O)N2C[C@H](n3nc(CC(=O)O)c4ccc(F)cc43)C[C@@H]2COc2ccccc2)cc1 [Compound I-365] | 0.1 to 5 | < 0.1 | – | –
34 | Cc1ccc2c(c1)c(CC(=O)O)nn2[C@H]1CN(S(=O)(=O)c2ccc(OC(C)C)cc2)C[C@H]1C [Compound I-203] | 0.1 to 5 | < 0.1 | – | –
35 | Cc1ccc2c(CC(=O)O)nn([C@H]3CN(S(=O)(=O)c4ccc(OC(C)C)cc4)C[C@H]3C)c2c1 [Compound I-62] | < 0.1 | < 0.1 | – | –
36 | CC(C)Oc1ccc(S(=O)(=O)N2C[C@H](n3nc(CC(=O)O)c4ccccc43)C[C@@H]2C(F)F)cc1 [Compound I-90] | 0.1 to 5 | < 0.1 | – | –
37 | CCOc1ccc(S(=O)(=O)N2C[C@H](n3nc(CC(=O)O)c4ccccc43)[C@@](C)(F)C2)cn1 (racemic) [Compound I-207] | < 0.1 | 0.1 to 5 | – | –
38 | COc1ccc(S(=O)(=O)N2C[C@@H](C)[C@@H](n3nc(CC(=O)O)c4ccccc43)C2)s1 [Compound I-178] | < 0.1 | 0.1 to 5 | – | –
39 | C=CCOC[C@H]1C[C@@H](n2nc(CC(=O)O)c3ccc(F)cc32)CN1S(=O)(=O)c1ccc(OC(C)C)cc1 [Compound I-323] | 0.1 to 5 | 0.1 to 5 | – | –
40 | CC(C)Oc1ccc(S(=O)(=O)N2C[C@H](n3nc(CC(=O)O)c4ccc(F)cc43)C[C@@H]2C)cc1 [Compound I-46] | < 0.1 | < 0.1 | – | –
41 | Cc1ccc2c(CC(=O)O)nn([C@H]3CN(S(=O)(=O)c4ccc(OC(C)C)cc4)C[C@H]3C)c2c1 [Compound I-63] | – | < 0.1 | 0.0031 | –
42 | COc1ccc(S(=O)(=O)N2C[C@@H](C)[C@@H](n3nc(CC(=O)O)c4ccccc43)C2)cn1 [Compound I-240] | < 0.1 | 0.1 to 5 | – | –
43 | CC(C)Oc1ccc(S(=O)(=O)N2C[C@H](n3nc(CC(=O)O)c4cccc(F)c43)C[C@@H]2C)cc1 [Compound I-60] | 0.1 to 5 | < 0.1 | – | –
44 | C[C@@H]1CN(S(=O)(=O)c2ccc(OCF)cc2)C[C@@H]1n1nc(CC(=O)O)c2ccc(F)cc21 [Compound I-269] | < 0.1 | < 0.1 | – | –
45 | CCOc1ccc(S(=O)(=O)N2C[C@H](n3c(C)c(CC(=O)O)c4ccccc43)C[C@@H]2C)cc1 [Compound I-315] | 0.1 to 5 | < 0.1 | – | –
46 | CCOc1ccc(S(=O)(=O)N2C[C@@H](C)[C@@H](n3nc(CC(=O)O)c4ccccc43)C2)c(CNC(C)=O)c1 [Compound I-259] | < 0.1 | 0.1 to 5 | – | –
47 | CCOc1ccc(S(=O)(=O)N2C[C@@H](C)[C@@H](n3cc(CC(=O)O)c4ccc(C)cc43)C2)cc1 [Compound I-271] | < 0.1 | < 0.1 | – | –
48 | CC(C)Oc1ccc(S(=O)(=O)N2C[C@@H](C)[C@@H](n3nc(CC(=O)O)c4cc(F)c(F)cc43)C2)cc1 [Compound I-68] | < 0.1 | < 0.1 | – | –
49 | CCOc1ccc(S(=O)(=O)N2C[C@H](n3nc(CC(=O)O)c4ccccc43)[C@@H](C)[C@@H]2C(N)=O)cc1 [Compound I-298] | 0.1 to 5 | 0.1 to 5 | – | –
50 | CON=C[C@@H]1CN(S(=O)(=O)c2ccc(OC(C)C)cc2)C[C@@H]1n1nc(CC(=O)O)c2ccc(F)cc21 [Compound I-65] | < 0.1 | 0.1 to 5 | – | –
51 | CC(C)Oc1ccc(S(=O)(=O)N2CC(F)[C@@H](n3nc(CC(=O)O)c4ccc(F)cc43)C2)cc1 (stereo partly drawn) [Compound I-26] | < 0.1 | 0.1 to 5 | – | –
52 | CC(C)Oc1ccc(S(=O)(=O)N2CC[C@@H](n3nc(CC(=O)O)c4ccc(F)cc43)[C@@H]2C)cc1 [Compound I-210] | < 0.1 | 0.1 to 5 | 0.01 | –

— patent publication US9725442B2, “Heterocyclic derivative having PGD2 receptor antagonist activity” (Shionogi & Co., Ltd., priority 2011, dated 2017)
